Values joined by “and” are separate entries in the source; they are usually repeats but may differ in a detail not shown here. Identical values can stand only once. Inconclusive results and toxic doses are left out.

The experiment concerns CD2F1 mice, ip Colon 26 adenocarcinoma, median survival T/C. Description: NCI In Vivo Anticancer Drug Screen. Data for tumor model Colon 26 Adenocarcinoma (intraperitoneal) in CD2F1 (CDF1) mice. The conditions noted are these: endpoint: median survival time, higher = longer survival. How it is done: The antitumor activity of compounds was measured in mice bearing transplantable tumors. Survival or tumor size were measured and the results are expressed as the measurement made in the treated group (T) divided by the measurement made in the vehicle treated control group (C). The tumor model used in this assay is Colon 26 Adenocarcinoma (intraperitoneal) in CD2F1 (CDF1) mice

Where [1] appears, read: dose: 12.5 mg/kg/injection, schedule: Q04DX003 (ip), vehicle: saline.
Setting [2] is: dose: 25.0 mg/kg/injection, schedule: Q04DX003 (ip), vehicle: saline.
The mark [3] stands for this setting: dose: 50.0 mg/kg/injection, schedule: Q04DX003 (ip), vehicle: saline.
The mark [4] stands for this setting: dose: 100.0 mg/kg/injection, schedule: Q04DX003 (ip), vehicle: saline.
The mark [5] stands for this setting: dose: 25.0 mg/kg/injection, schedule: Q04DX003 (ip), vehicle: saline with Tween-80.
The mark [6] stands for this setting: dose: 50.0 mg/kg/injection, schedule: Q04DX003 (ip), vehicle: saline with Tween-80.
Where [7] appears, read: dose: 100.0 mg/kg/injection, schedule: Q04DX003 (ip), vehicle: saline with Tween-80.
The mark [8] stands for this setting: dose: 200.0 mg/kg/injection, schedule: Q04DX003 (ip), vehicle: saline with Tween-80.
Setting [9] is: dose: 6.25 mg/kg/injection, schedule: Q04DX003 (ip), vehicle: saline with Tween-80.
The mark [10] stands for this setting: dose: 12.5 mg/kg/injection, schedule: Q04DX003 (ip), vehicle: saline with Tween-80.
The mark [11] stands for this setting: dose: 50.0 mg/kg/injection, schedule: Q04DX003 (ip), vehicle: Klucel (hydroxypropylcellulose) (HPC).
[12] abbreviates: dose: 100.0 mg/kg/injection, schedule: Q04DX003 (ip), vehicle: Klucel (hydroxypropylcellulose) (HPC).
The mark [13] stands for this setting: dose: 400.0 mg/kg/injection, schedule: Q04DX003 (ip), vehicle: saline with Tween-80.
Where [14] appears, read: dose: 6.25 mg/kg/injection, schedule: Q04DX003 (ip), vehicle: saline.
[15] abbreviates: dose: 25.0 mg/kg/injection, schedule: Q04DX003 (ip), vehicle: Klucel (hydroxypropylcellulose) (HPC).

Regarding `CC1CCC(NC(=O)N(CCCl)N=O)CC1` (stereo not given), the T/C by setting is: (dose: 5.0 mg/kg/injection, schedule: Q04DX003 (ip), vehicle: Klucel (hydroxypropylcellulose) (HPC)) 250 % of control; (dose: 6.7 mg/kg/injection, schedule: Q04DX002 (ip), vehicle: saline with Tween-80) 106 % of control; (dose: 10.0 mg/kg/injection, schedule: Q04DX002 (ip), vehicle: saline with Tween-80) 108 % of control; (dose: 10.0 mg/kg/injection, schedule: Q04DX003 (ip), vehicle: Klucel (hydroxypropylcellulose) (HPC)) 305 % of control; (dose: 12.0 mg/kg/injection, schedule: Q07DX003 (ip), vehicle: saline with Tween-80) 189 % of control and 219 % of control; (dose: 15.0 mg/kg/injection, schedule: Q04DX002 (ip), vehicle: saline with Tween-80) 123 % of control. The T/C is 262 % of control and 288 % of control (dose: 17.0 mg/kg/injection, schedule: Q07DX003 (ip), vehicle: saline with Tween-80); 217 % of control (dose: 20.0 mg/kg/injection, schedule: Q01DX001 (ip), vehicle: other); 437 % of control (dose: 20.0 mg/kg/injection, schedule: Q04DX003 (ip), vehicle: Klucel (hydroxypropylcellulose) (HPC)); 288 % of control and 354 % of control (dose: 24.0 mg/kg/injection, schedule: Q07DX003 (ip), vehicle: saline with Tween-80); 217 % of control (dose: 30.0 mg/kg/injection, schedule: Q01DX001 (ip), vehicle: other); 352 % of control (dose: 30.0 mg/kg/injection, schedule: Q01DX005 (ip), vehicle: saline with Tween-80). Besides, the T/C is, setting by setting: (dose: 40.0 mg/kg/injection, schedule: Q01DX005 (ip), vehicle: saline with Tween-80) 329 % of control; (dose: 55.0 mg/kg/injection, schedule: Q01DX005 (ip), vehicle: saline with Tween-80) 172 % of control.

For `C[C@@]1(CO)[C@H](O)CC[C@@]2(C)[C@H]1CC[C@H]1C[C@@H]3C[C@@]12CC[C@@]3(O)COC(=O)CN`, the T/C is 113 % of control (dose: 12.5 mg/kg/injection, schedule: Q01DX009 (ip), vehicle: saline + alcohol); 95 % of control (dose: 25.0 mg/kg/injection, schedule: Q01DX009 (ip), vehicle: saline + alcohol); 115 % of control (dose: 25.0 mg/kg/injection, schedule: Q04DX003 (iv), vehicle: saline); 106 % of control (dose: 50.0 mg/kg/injection, schedule: Q01DX009 (ip), vehicle: saline + alcohol); 118 % of control (dose: 50.0 mg/kg/injection, schedule: Q04DX003 (iv), vehicle: saline); 94 % of control (dose: 75.0 mg/kg/injection, schedule: Q01DX009 (ip), vehicle: saline + alcohol). Besides, the T/C (dose: 100.0 mg/kg/injection, schedule: Q04DX003 (iv), vehicle: saline) was 100 % of control.

For `O=[N+]([O-])O.[Ga]`, the T/C reads like this: (dose: 12.5 mg/kg/injection, schedule: Q01DX005 (ip), vehicle: saline) 97 % of control; under setting [1], 103 % of control; (dose: 25.0 mg/kg/injection, schedule: Q01DX005 (ip), vehicle: saline) 96 % of control; under setting [2], 108 % of control; (dose: 50.0 mg/kg/injection, schedule: Q01DX005 (ip), vehicle: saline) 87 % of control; under setting [3], 106 % of control. Also, under setting [4], the T/C was 87 % of control.

As to `O=C(N/N=C\c1cc(Br)cc(Br)c1O)N/N=C/c1cc(Br)cc(Br)c1O`, the T/C reads like this: under setting [5], 118 % of control; under setting [6], 102 % of control; under setting [7], 102 % of control; under setting [8], 123 % of control.

For the compound `COc1cc2oc(=O)ccc2cc1[C@@H]1OC(=O)C2(C)O[C@@H]12` (stereo not given in full), the T/C was 91 % of control (dose: 0.15 mg/kg/injection, schedule: Q01DX009 (ip), vehicle: water); 106 % of control (dose: 0.31 mg/kg/injection, schedule: Q01DX009 (ip), vehicle: water); 111 % of control (dose: 0.62 mg/kg/injection, schedule: Q01DX009 (ip), vehicle: water); 94 % of control (dose: 1.25 mg/kg/injection, schedule: Q01DX009 (ip), vehicle: water); 88 % of control (dose: 2.5 mg/kg/injection, schedule: Q01DX009 (ip), vehicle: water); 90 % of control (dose: 5.0 mg/kg/injection, schedule: Q01DX009 (ip), vehicle: water). In addition, the T/C (dose: 10.0 mg/kg/injection, schedule: Q01DX009 (ip), vehicle: water) is 102 % of control.

On to `C=C/C(C)=C/[C@H](C)C(=O)C[C@H](O)CC1CC(=O)NC(=O)C1`, for which the T/C runs as follows: under setting [9], 97 % of control; under setting [10], 100 % of control; under setting [5], 108 % of control; under setting [6], 109 % of control; under setting [8], 121 % of control.

Turning to `OC(CBr)C(O)C(O)C(O)CBr` (stereo not given), the T/C was 114 % of control under setting [5]; 107 % of control under setting [11]; 102 % of control under setting [6]; 117 % of control under setting [12]; 96 % of control under setting [7]; 102 % of control under setting [8]. Further, the T/C under setting [13] is 114 % of control and the T/C (dose: 800.0 mg/kg/injection, schedule: Q04DX003 (ip), vehicle: Klucel (hydroxypropylcellulose) (HPC)) was 163 % of control.

As for `[N-]=[N+]=CC(=O)CCC(N)C(=O)O` (stereo not given), the T/C (dose: 0.2 mg/kg/injection, schedule: Q04DX003 (ip), vehicle: saline) is 102 % of control; the T/C (dose: 0.39 mg/kg/injection, schedule: Q04DX003 (ip), vehicle: saline) was 108 % of control; the T/C (dose: 0.78 mg/kg/injection, schedule: Q04DX003 (ip), vehicle: saline) was 108 % of control; the T/C (dose: 1.56 mg/kg/injection, schedule: Q04DX003 (ip), vehicle: saline) was 111 % of control; the T/C (dose: 3.13 mg/kg/injection, schedule: Q04DX003 (ip), vehicle: saline) is 120 % of control; the T/C under setting [14] was 119 % of control.

As for `CCc1c(CC(=O)O)c2cc(C)ccc2n1Cc1ccc(Cl)cc1`, the T/C was 89 % of control (dose: 6.25 mg/kg/injection, schedule: Q04DX003 (ip), vehicle: Klucel (hydroxypropylcellulose) (HPC)); 95 % of control (dose: 12.5 mg/kg/injection, schedule: Q04DX003 (ip), vehicle: Klucel (hydroxypropylcellulose) (HPC)); 97 % of control under setting [15]; 100 % of control under setting [11]; 111 % of control under setting [12].

For `Oc1ccc(C2CCCCC2)cc1CN1CCCCC1`, the T/C (dose: 3.12 mg/kg/injection, schedule: Q04DX003 (ip), vehicle: saline) is 112 % of control; the T/C under setting [14] was 114 % of control; the T/C under setting [1] is 112 % of control; the T/C under setting [2] is 104 % of control; the T/C under setting [3] is 115 % of control; the T/C under setting [4] was 120 % of control.

As for `CO[C@H]1C[C@@H]2CC[C@@H](C)[C@@](O)(O2)C(=O)C(=O)N2CCCC[C@H]2C(=O)O[C@H]([C@H](C)C[C@@H]2CC[C@@H](O)[C@H](OC)C2)CC(=O)[C@H](C)C=C(C)[C@@H](O)[C@@H](OC)C(=O)[C@H](C)C[C@H](C)/C=C/C=C/C=C1C`, the T/C reads like this: under setting [10], 104 % of control; under setting [5], 118 % of control; under setting [6], 116 % of control; under setting [7], 105 % of control; under setting [8], 96 % of control.

In the case of `N=C(N)Sc1ccccn1`, the T/C under setting [1] is 94 % of control, the T/C under setting [2] was 101 % of control, the T/C under setting [3] was 91 % of control and the T/C under setting [4] was 91 % of control.

`[I][Hg][CH2]C1OCCOC1[CH2][Hg][I]` (stereo not given): the T/C was 103 % of control under setting [15] and 100 % of control under setting [11].

In the case of `C=CC(=O)N1CN(C(=O)C=C)CN(C(=O)C=C)C1`, the T/C runs as follows: (dose: 3.13 mg/kg/injection, schedule: Q04DX003 (ip), vehicle: saline with Tween-80) 115 % of control; under setting [9], 110 % of control; under setting [10], 106 % of control; under setting [1], 122 % of control.

As to `Cc1ccc(NC(=O)Oc2ccc(Br)cc2Br)c([N+](=O)[O-])c1`, the T/C is 97 % of control under setting [10]; 100 % of control under setting [5]; 100 % of control under setting [6]; 107 % of control under setting [7]; 117 % of control under setting [8]; 123 % of control under setting [13].

These data come from PubChem BioAssay AID210 (DTP/NCI, 2004).
